Reference: publication PMC6385358, “Discovery of ((1,2,4-oxadiazol-5-yl)pyrrolidin-3-yl)ureidyl derivatives as selective non-steroidal agonists of the G-protein coupled bile acid receptor-1” (Scientific Reports, 2019)
pEC50: −log10 of the molar value. Several values for one entry are separate records, joined by “and”; a condition that tells them apart may be missing. Equal values may be shown once.

What was measured:
GPBAR1 = target: T1, GPBAR1 (Homo sapiens, UniProt Q8TDU6); experiment: Luciferase reporter (CRE) transactivation assay in HEK-293T cells transfected with GPBAR1; type: cell-based; details: dose response 1 to 50 µM, HEK-293T transfected with GPBAR1
T1 construct: expressed in transfected cells; host or cells: HEK-293T
T1 sequence (Q8TDU6 1-330): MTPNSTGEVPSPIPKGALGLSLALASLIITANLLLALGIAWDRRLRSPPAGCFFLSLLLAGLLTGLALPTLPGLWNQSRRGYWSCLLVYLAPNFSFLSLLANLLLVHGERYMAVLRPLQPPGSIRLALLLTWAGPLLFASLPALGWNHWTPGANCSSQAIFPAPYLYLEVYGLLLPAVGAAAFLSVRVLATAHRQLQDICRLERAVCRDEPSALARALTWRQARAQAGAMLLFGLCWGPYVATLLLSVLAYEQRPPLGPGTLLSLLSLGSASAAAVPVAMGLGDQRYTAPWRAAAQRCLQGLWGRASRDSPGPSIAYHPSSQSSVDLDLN
Procedure: (§1) The activity of compounds 1–14 on GPBAR1 was evaluated in a luciferase reporter assay using HEK-293T cells transfected with GPBAR1. The efficacy of tested compounds (Table 1) was measured using taurolithocholic acid (TLCA) as GPBAR1 reference compound[10],[11]. Each compound was tested at the concentration of 10 μM and transactivation activity of TLCA on a cAMP responsive element (CRE) (i.e. TGR5/GPBAR1) was considered equal to 100%. […] Thus, 9 and 10 (Table 1) turned out to be the most promising derivatives considering their low EC50 values and high activity efficacy. To further characterize the pharmacological properties of these compounds, we expanded their in vitro profile to common off-targets for bile acid receptor ligands.
Transactivation assay on HEK-293T cells was performed to investigate GPBAR1 activation, using compound 1–14 and TLCA as positive control at 10 µM, as previously reported.
Supplementary Figure S4. HEK-293T cells were transiently transfected with GPBAR1 and a reporter gene containing a cAMP responsive element in front of the luciferase gene. Cells were stimulated with compounds A-L (10 μM). TLCA (10 μM) was used as positive control. Luciferase activity served as a measure of the rise in intracellular cAMP following activation of GPBAR1. In all panels, results are expressed as mean ± standard error. ^∗p < 0.05 versus not treated cells (NT).

FXR = target: T2, FXR (Homo sapiens, UniProt Q96RI1); experiment: Luciferase reporter specificity assay versus FXR on HepG2 cells; type: cell-based; details: 10 μM
T2 construct: host or cells: HepG2
T2 sequence (Q96RI1 1-486): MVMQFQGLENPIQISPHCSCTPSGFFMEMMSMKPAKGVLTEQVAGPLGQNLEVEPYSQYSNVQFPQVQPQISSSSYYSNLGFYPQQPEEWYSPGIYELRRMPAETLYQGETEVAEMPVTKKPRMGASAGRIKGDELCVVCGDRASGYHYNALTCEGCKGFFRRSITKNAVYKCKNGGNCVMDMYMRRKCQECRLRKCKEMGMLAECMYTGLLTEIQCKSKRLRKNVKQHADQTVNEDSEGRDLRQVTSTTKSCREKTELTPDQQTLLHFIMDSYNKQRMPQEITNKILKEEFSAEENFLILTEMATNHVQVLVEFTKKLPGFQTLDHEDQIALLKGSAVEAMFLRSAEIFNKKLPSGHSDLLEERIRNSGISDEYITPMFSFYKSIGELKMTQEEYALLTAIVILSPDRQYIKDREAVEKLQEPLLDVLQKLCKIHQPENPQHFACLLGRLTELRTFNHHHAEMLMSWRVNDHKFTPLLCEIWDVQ
Procedure: as §1
Figure 3 (A) Dose response curves of compounds 9 and 10 (concentrations ranging from 1 to 50 µM) in luciferase reporter assay. (B) Real-time PCR analysis of mRNA expression of Pro-glucagon in GLUTag cells treated with compounds 9 and 10 at 10 μM, and TLCA used as a positive control (10 μM). Values are normalized to GAPDH and are expressed relative to those of not treated cells (NT) which are arbitrarily settled to 1. The relative mRNA expression is expressed as 2^(−ΔΔCt). […]
The specificity of compounds 9 and 10 versus PPARα, PPARγ, LXRα, LXRβ, FXR and PXR was determined in luciferase reporter gene assays as previously reported[29],[31].

[1] = Aqueous solubility measurement (PBS pH 7.4, LC-MS); type: physicochemical; details: aqueous buffer, kinetic from dmso stock; PBS pH 7.4, 24 h room temperature
Procedure: Chromatography was performed using a HPLC–MS system Q-ToF Premiere instrument (Waters, Co.) equipped with an ESI source and Waters pump systems. The mixture was separated on a Luna 5 µm C8(2) 100 °A 150 × 2 mm from Phenomenex. The mobile phase consisted of 0.2% formic acid (FA) in water as solvent A and 0.2% FA in acetonitrile as solvent B at a flow rate of 200 μL/min. The gradient was as follows: 0–2 min (75% A and 25% B), 2–20 min (5% A and 95% B), 20–30 min (75% A and 25% B). The detection of analytes was achieved by ESI in the positive mode with the appropriate MRM transition or by UV system at 220 nm.
Ten μL of a 10 mM solution in DMSO of the compound was diluted either in 490 μL of PBS pH 7.4 or in the organic solvent MeOH (in triplicate). The tubes were gently shaken 24 h at room temperature, then centrifuged for 5 min at 4000 rpm. Ten μL of sample was diluted in 490 μL of MeOH. The solubility is determined by the ratio of mass signal area PBS/organic solvent.

pEC50 (GPBAR1) | FXR transactivation (FXR) | solubility at 24 h [1] | SMILES
5.46 | unable to induce | 42 µg/mL and 110 µM | O=C(Nc1ccc(Cl)cc1)N[C@@H]1CN[C@H](c2nc(-c3ccccc3)no2)C1 [Compound 9]
5.34 | unable to induce | 70 µg/mL and 198 µM | O=C(NC1CCCCC1)N[C@@H]1CN[C@H](c2nc(-c3ccccc3)no2)C1 [Compound 10]
